pIC50: −log10 of the molar value.
Key:
[1] = test system: Leishmania donovani; test: Antileishmanial activity against Leishmania donovani promastigotes assessed as parasitic growth inhibition at 50 uM incubated for 3 days by resazurin dye based assay relative to control; format: functional; conditions: 72 h, time 3 day
[2] = test system: Leishmania donovani; test: Antileishmanial activity against Leishmania donovani promastigotes assessed as parasitic growth inhibition at 25 uM incubated for 3 days by resazurin dye based assay relative to control; format: functional; conditions: 72 h, time 3 day
[3] = test system: Leishmania donovani; test: Antileishmanial activity against Leishmania donovani promastigotes assessed as parasitic growth inhibition incubated for 3 days by resazurin dye based assay; format: functional, organism-based; conditions: 72 h
[4] = test system: Leishmania donovani; test: Antileishmanial activity against Leishmania donovani amastigotes infected in human THP-1 cells assessed as inhibition of intracellular parasite number incubated for 72 hrs by DAPI staining based assay; format: functional, organism-based; conditions: THP-1, 72 h
[5] = test system: Leishmania donovani; test: Antileishmanial activity against Leishmania donovani amastigotes infected in human THP-1 cells assessed as inhibition of parasite infection incubated for 72 hrs by DAPI staining based assay; format: functional, organism-based; conditions: THP-1, 72 h
[6] = Cytotoxicity against human THP-1 cells; format: toxicity, cell-based

| SMILES | inhibition at 50 µM [1] | inhibition at 25 µM [2] | pIC50 [3] | pIC50 [4] | pIC50 [5] | CC50 [6] |
| --- | --- | --- | --- | --- | --- | --- |
| COc1ccc(/C=C2\Oc3cc(OCCCN4CCCC4)ccc3C2=O)cc1OC | 124% | 120% | 5.51 | 4.77 | 4.58 | 26.9 µM |
| COc1ccc(OC)c(/C=C2\Oc3cc(OCCN4CCCC4)ccc3C2=O)c1 | 116% | 115% | 5.39 | 5.34 | 4.95 | 10.5 µM |
| COc1ccc(OC)c(/C=C2\Oc3cc(OCCCN4CCCC4)ccc3C2=O)c1 | 103% | 103% | 5.43 | 5.36 | 5.20 | 6.6 µM |
| CCCCCCCCCCCCCCCCCCOCC(COP(=O)([O-])OCC[N+](C)(C)C)OC (stereo unspecified) [EDELFOSINE] | 108% | 108% | 5.41 | 5.70 | 5.11 | 12.9 µM |
| COc1cccc(/C=C2\Oc3cc(OCCCN4CCCC4)ccc3C2=O)c1OC | 116% | 109% | 5.27 | < 4.00 | 4.58 | 33.5 µM |
| COc1cccc(/C=C2\Oc3cc(OCCN4CCOCC4)ccc3C2=O)c1 | 105% | 80% | 4.57 |  |  |  |
| COc1ccc2c(c1)O/C(=C\c1ccc(O)c(O)c1)C2=O | 108% | 105% | 4.58 |  |  |  |
| COc1ccc(/C=C2\Oc3cc(OCCCN4CCCCC4)ccc3C2=O)cc1OC | 125% | 119% | 5.59 | 4.65 | 4.53 | 28.4 µM |
| COc1cc(/C=C2\Oc3cc(OCCCN4CCCC4)ccc3C2=O)cc(OC)c1 | 102% | 104% | 5.55 | 4.84 | 4.85 | 15.3 µM |
| COc1ccc(/C=C2\Oc3cc(OCCCCCN4CCCCC4)ccc3C2=O)cc1OC | 124% | 115% | 5.54 | 4.77 | 4.62 | 26.1 µM |
| CCN(CC)CCOc1ccc2c(c1)O/C(=C\c1cccc(OC)c1)C2=O | 121% | 115% | 5.07 | < 4.00 | 4.56 | 39 µM |
| COc1cc(/C=C2\Oc3cc(OCCN4CCCC4)ccc3C2=O)cc(OC)c1OC | 133% | 126% | 5.51 | 4.80 | 4.56 | 26.2 µM |
| CCN(CC)CCCOc1ccc2c(c1)O/C(=C\c1cccc(OC)c1)C2=O | 118% | 114% | 5.34 | 4.84 | 4.77 | 19.3 µM |
| COc1ccc(/C=C2\Oc3cc(OCCN4CCCC4)ccc3C2=O)cc1 | 115% | 108% | 5.32 | 4.80 | 4.65 | 21.5 µM |
| COc1ccc(/C=C2\Oc3cc(OCCN4CCCCC4)ccc3C2=O)cc1OC | 127% | 122% | 5.60 | 4.59 | 4.53 | 27.4 µM |
| COc1ccccc1/C=C1\Oc2cc(OCCCN3CCCC3)ccc2C1=O | 110% | 107% | 5.39 | 5.09 | 4.67 | 14.3 µM |
| COc1cccc(/C=C2\Oc3cc(OCCN4CCCC4)ccc3C2=O)c1 | 117% | 112% | 5.32 | 4.64 | 4.57 | 28.9 µM |
| COc1ccccc1/C=C1\Oc2cc(OCCN3CCCC3)ccc2C1=O | 71% | 69% | < 4.00 |  |  |  |
| COc1ccc(/C=C2\Oc3cc(OCCN4CCCCC4)ccc3C2=O)cc1 | 99% | 104% | 5.37 | 4.50 | 4.46 | 40.7 µM |
| CCN(CC)CCOc1ccc2c(c1)O/C(=C\c1ccccc1OC)C2=O | 115% | 110% | 5.28 | 5.00 | 4.88 | 17.2 µM |

From ChEMBL document CHEMBL5346931, “Design, synthesis, and repurposing of O6-aminoalkyl-sulfuretin analogs towards discovery of potential lead compounds as antileishmanial agents” (Eur J Med Chem, 2023)
